Measured values as given in patent publication EP0377642B1, “HERBICIDES FOR WEED CONTROL IN RICE” (E.I. DU PONT DE NEMOURS AND COMPANY, priority 1987, dated 1989).

What was measured:
Assay type in all cases: in vivo
Ludwigia linifolia [1] = assay: Herbicidal efficacy with Bensulfuron methyl and 2,4-D in Thailand (Table 18); details: 13 days after treatment
Procedure, shortened: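 Field trials in rice, transplanted or direct-seeded, in Southeast Asia and the U.S. Compound 1 alone or in mixtures, including with 2,4-D, hand-sprayed; the Indonesia Echinochloa trial was applied 2 weeks after transplanting.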

Monochoria vaginalis = assay: Herbicidal efficacy in Indonesia, applied 2 weeks after transplanting (Table 6)
Description: (§1) Methyl 2-[[[[(4-methoxy-6-methyl-1,3,5-triazin-2-yl)amino]carbonyl]amino]sulfonyl]benzoate (Compound 1) and mixtures thereof with other compounds were applied as a spray (using a hand sprayer) to rice (either transplanted or direct seeded) in several rice growing areas in Southeast Asia and in the U.S. Tables 1-28 contain the results of these tests and clearly exemplify the utility of this invention. The details of each application are included in the appropriate table. [drawing 2]

Scirpus juncoides = assay: as above
Description: as §1

Echinochloa crus-galli = assay: as above
Description: as §1

Ludwigia linifolia [2] = assay: Herbicidal efficacy with 2,4-D in Thailand (Table 17); details: 4 GAI/HA; 14 days after treatment
Description: as §1

Sphenoclea zeylanica [3] = assay: as above; details: 4 GAI/HA; 14 days after treatment
Description: as §1

MC = assay: as above; details: 4 GAI/HA; 14 days after treatment
Description: as §1

rice [4] = assay: as above; details: 4 GAI/HA; 14 days after treatment
Description: as §1

Cyperus difformis = assay: as above; details: 4 GAI/HA; 14 days after treatment
Description: as §1

Sphenoclea zeylanica [5] = assay: Field test, herbicidal efficacy in rice, Thailand, applied 36 days after seeding (Table 1); details: 100=complete control
Description: as §1

Cyperus species = assay: as above; details: 100=complete control
Description: as §1

rice [6] = assay: Greenhouse test of Compound 1 and Compound 2, crop tolerance (Table 26); details: treated 12 days after transplanting, rated 24 days after treatment; for % CONTROL OR INJURY LEMONT: indica rice variety Lemont; for % CONTROL OR INJURY M101: japonica rice variety M101
Description: as §1

rice [7] = assay: Effects in combination with Thiobencarb and Bensulfuron Methyl on rice growth (Table 22); details: rate 8 g ai/ha; var. Koshihikari, applied 7 days after transplanting, rated 21 days after application
Description: as §1

[8] = tested on: transplanted rice (var. Nihonbare); assay: Crop tolerance of transplanted rice, combinations with Thiobencarb, Dimepiperate, Esprocarb and Dymron (Table 15); details: 15 days after application
Description: as §1

FIMBRISTYLIS MILIACEA = assay: Herbicidal efficacy alone and with 2,4-D in Thailand (Table 3); details: 6 weeks after application
Description: as §1

weeds = assay: Greenhouse test of Compound 1 and Compound 2, herbicidal efficacy (Table 26); details: rated 24 days after treatment; for % CONTROL OR INJURY AT: Alisma triviale; for % CONTROL OR INJURY AP: Alternanthera philoxeroides; for % CONTROL OR INJURY CD: Cyperus difformis; for % CONTROL OR INJURY SR: Sagittaria rigida
Description: as §1

rice [9] = assay: Effects on rice growth in Thailand, phytotoxicity (Table 2); details: scale 0-10
Description: as §1

[10] = 3 GAI/HA, 2 weeks after application
[11] = 3 GAI/HA, 5 weeks after application
[12] = 3 GAI/HA, 7 weeks after application
[13] = 4 GAI/HA, 2 weeks after application
[14] = 4 GAI/HA, 5 weeks after application
[15] = 4 GAI/HA, 7 weeks after application
[16] = 6 GAI/HA, 2 weeks after application
[17] = 6 GAI/HA, 5 weeks after application
[18] = 6 GAI/HA, 7 weeks after application
[19] = 8 GAI/HA, 2 weeks after application
[20] = 8 GAI/HA, 5 weeks after application
[21] = 8 GAI/HA, 7 weeks after application

## COC(=O)c1ccccc1CS(=O)(=O)NC(=O)Nc1nc(OC)cc(OC)n1 [Bensulfuron methyl, methyl 2-[[[[[(4,6-dimethoxy-2-pyrimidinyl)amino]carbonyl]amino]sulfonyl]methyl]benzoate]
Ludwigia linifolia [1]; 10 GAI/HA
  % CONTROL OR INJURY LL: 100%
Ludwigia linifolia [1]; 15 GAI/HA
  % CONTROL OR INJURY LL: 100%
Ludwigia linifolia [1]; 20 GAI/HA
  % CONTROL OR INJURY LL: 100%

## COC(=O)c1ccccc1S(=O)(=O)NC(=O)Nc1nc(C)nc(OC)n1 [Compound 1, Methyl 2-[[[[(4-methoxy-6-methyl-1,3,5-triazin-2-yl)amino]carbonyl]amino]sulfonyl]benzoate]
Monochoria vaginalis; [10]
  % CONTROL MV: 100%
Monochoria vaginalis; [11]
  % CONTROL MV: 100%
Monochoria vaginalis; [12]
  % CONTROL MV: 100%
Monochoria vaginalis; [13]
  % CONTROL MV: 90%
Monochoria vaginalis; [14]
  % CONTROL MV: 100%
Monochoria vaginalis; [15]
  % CONTROL MV: 100%
Monochoria vaginalis; [16]
  % CONTROL MV: 100%
Monochoria vaginalis; [17]
  % CONTROL MV: 100%
Monochoria vaginalis; [18]
  % CONTROL MV: 100%
Monochoria vaginalis; [19]
  % CONTROL MV: 100%
Monochoria vaginalis; [20]
  % CONTROL MV: 100%
Monochoria vaginalis; [21]
  % CONTROL MV: 100%
Scirpus juncoides; [10]
  % CONTROL SJ: 60%
Scirpus juncoides; [11]
  % CONTROL SJ: 90%
Scirpus juncoides; [12]
  % CONTROL SJ: 70%
Scirpus juncoides; [13]
  % CONTROL SJ: 60%
Scirpus juncoides; [14]
  % CONTROL SJ: 100%
Scirpus juncoides; [15]
  % CONTROL SJ: 70%
Scirpus juncoides; [16]
  % CONTROL SJ: 90%
Scirpus juncoides; [17]
  % CONTROL SJ: 100%
Scirpus juncoides; [18]
  % CONTROL SJ: 80%
Scirpus juncoides; [19]
  % CONTROL SJ: 80%
Scirpus juncoides; [20]
  % CONTROL SJ: 100%
Scirpus juncoides; [21]
  % CONTROL SJ: 80%
Echinochloa crus-galli; [10]
  % CONTROL EC: 20%
Echinochloa crus-galli; [11]
  % CONTROL EC: 30%
Echinochloa crus-galli; [12]
  % CONTROL EC: 0%
Echinochloa crus-galli; [13]
  % CONTROL EC: 20%
Echinochloa crus-galli; [14]
  % CONTROL EC: 30%
Echinochloa crus-galli; [15]
  % CONTROL EC: 0%
Echinochloa crus-galli; [16]
  % CONTROL EC: 20%
Echinochloa crus-galli; [17]
  % CONTROL EC: 30%
Echinochloa crus-galli; [18]
  % CONTROL EC: 0%
Echinochloa crus-galli; [19]
  % CONTROL EC: 20%
Echinochloa crus-galli; [20]
  % CONTROL EC: 30%
Echinochloa crus-galli; [21]
  % CONTROL EC: 0%
Ludwigia linifolia [2]
  % CONTROL OR INJURY LL: 87%
Sphenoclea zeylanica [3]
  % CONTROL OR INJURY SZ: 100%
MC
  % CONTROL OR INJURY MC: 100%
Rice [4]
  % CONTROL OR INJURY RICE: 16.6%
Cyperus difformis
  % CONTROL OR INJURY CD: 100%
Sphenoclea zeylanica [5]; Trial 1, 2 GAI/HA
  Herbicidal efficacy SZ 2WAA: 100
  Herbicidal efficacy SZ 4WAA: 100
  Herbicidal efficacy SZ 6WAA: 100
Sphenoclea zeylanica [5]; Trial 1, 3 GAI/HA
  Herbicidal efficacy SZ 2WAA: 99
  Herbicidal efficacy SZ 4WAA: 100
  Herbicidal efficacy SZ 6WAA: 100
Sphenoclea zeylanica [5]; Trial 1, 4 GAI/HA
  Herbicidal efficacy SZ 2WAA: 100
  Herbicidal efficacy SZ 4WAA: 100
  Herbicidal efficacy SZ 6WAA: 100
Sphenoclea zeylanica [5]; Trial 1, 6 GAI/HA
  Herbicidal efficacy SZ 2WAA: 100
  Herbicidal efficacy SZ 4WAA: 100
  Herbicidal efficacy SZ 6WAA: 100
Sphenoclea zeylanica [5]; Trial 2, 2 GAI/HA
  Herbicidal efficacy SZ 2WAA: 97
  Herbicidal efficacy SZ 4WAA: 99
  Herbicidal efficacy SZ 6WAA: 99
Sphenoclea zeylanica [5]; Trial 2, 3 GAI/HA
  Herbicidal efficacy SZ 2WAA: 100
  Herbicidal efficacy SZ 4WAA: 100
  Herbicidal efficacy SZ 6WAA: 100
Sphenoclea zeylanica [5]; Trial 2, 4 GAI/HA
  Herbicidal efficacy SZ 2WAA: 99
  Herbicidal efficacy SZ 4WAA: 99
  Herbicidal efficacy SZ 6WAA: 100
Sphenoclea zeylanica [5]; Trial 2, 6 GAI/HA
  Herbicidal efficacy SZ 2WAA: 100
  Herbicidal efficacy SZ 4WAA: 100
  Herbicidal efficacy SZ 6WAA: 100
Cyperus species; Trial 1, 2 GAI/HA
  Herbicidal efficacy CY 2WAA: 33
Cyperus species; Trial 1, 3 GAI/HA
  Herbicidal efficacy CY 2WAA: 67
Cyperus species; Trial 1, 4 GAI/HA
  Herbicidal efficacy CY 2WAA: 67
Cyperus species; Trial 1, 6 GAI/HA
  Herbicidal efficacy CY 2WAA: 67
Cyperus species; Trial 2, 2 GAI/HA
  Herbicidal efficacy CY 2WAA: 0
Cyperus species; Trial 2, 3 GAI/HA
  Herbicidal efficacy CY 2WAA: 67
Cyperus species; Trial 2, 4 GAI/HA
  Herbicidal efficacy CY 2WAA: 33
Cyperus species; Trial 2, 6 GAI/HA
  Herbicidal efficacy CY 2WAA: 67
Rice [6]; rate 1 g ai/ha
  % CONTROL OR INJURY LEMONT: 10%
  % CONTROL OR INJURY M101: 0%
Rice [6]; rate 2 g ai/ha
  % CONTROL OR INJURY LEMONT: 20%
  % CONTROL OR INJURY M101: 10%
Rice [6]; rate 4 g ai/ha
  % CONTROL OR INJURY LEMONT: 40%
  % CONTROL OR INJURY M101: 10%
Rice [6]; rate 8 g ai/ha
  % CONTROL OR INJURY LEMONT: 50%
  % CONTROL OR INJURY M101: 35%
Rice [7]
  CROP TOLERANCE DW (Dry weight relative to untreated check): 92%
  CROP TOLERANCE PH (Plant height relative to untreated check): 99%
  CROP TOLERANCE VA (Visual crop injury): 0.5%
[8]; 4 GAI/HA
  CROP TOLERANCE (Nihonbare) DW, dry weight relative to untreated check: 107%
  CROP TOLERANCE (Nihonbare) PH, plant height relative to untreated check: 103%
  CROP TOLERANCE (Nihonbare) VA, visual crop injury: 0%
[8]; 8 GAI/HA
  CROP TOLERANCE (Nihonbare) DW, dry weight relative to untreated check: 83%
  CROP TOLERANCE (Nihonbare) PH, plant height relative to untreated check: 95%
  CROP TOLERANCE (Nihonbare) VA, visual crop injury: 3%
FIMBRISTYLIS MILIACEA; applied 7 DAS, 3 GAI/HA
  FIMBRISTYLIS MILIACEA CONTROL: 53%
FIMBRISTYLIS MILIACEA; applied 7 DAS, 6 GAI/HA
  FIMBRISTYLIS MILIACEA CONTROL: 73%
FIMBRISTYLIS MILIACEA; applied 14 DAS, 3 GAI/HA
  FIMBRISTYLIS MILIACEA CONTROL: 20%
FIMBRISTYLIS MILIACEA; applied 14 DAS, 6 GAI/HA
  FIMBRISTYLIS MILIACEA CONTROL: 40%
FIMBRISTYLIS MILIACEA; applied 21 DAS, 3 GAI/HA
  FIMBRISTYLIS MILIACEA CONTROL: 0%
FIMBRISTYLIS MILIACEA; applied 21 DAS, 6 GAI/HA
  FIMBRISTYLIS MILIACEA CONTROL: 0%
FIMBRISTYLIS MILIACEA; applied 28 DAS, 3 GAI/HA
  FIMBRISTYLIS MILIACEA CONTROL: 0%
FIMBRISTYLIS MILIACEA; applied 28 DAS, 6 GAI/HA
  FIMBRISTYLIS MILIACEA CONTROL: 0%
weeds; rate 1 g ai/ha
  % CONTROL OR INJURY AT: 80%
  % CONTROL OR INJURY AP: 0%
  % CONTROL OR INJURY CD: 60%
  % CONTROL OR INJURY SR: 90%
weeds; rate 2 g ai/ha
  % CONTROL OR INJURY AT: 95%
  % CONTROL OR INJURY AP: 0%
  % CONTROL OR INJURY CD: 60%
  % CONTROL OR INJURY SR: 95%
weeds; rate 4 g ai/ha
  % CONTROL OR INJURY AT: 95%
  % CONTROL OR INJURY AP: 60%
  % CONTROL OR INJURY CD: 80%
  % CONTROL OR INJURY SR: 95%
weeds; rate 8 g ai/ha
  % CONTROL OR INJURY AT: 95%
  % CONTROL OR INJURY AP: 70%
  % CONTROL OR INJURY CD: 100%
  % CONTROL OR INJURY SR: 95%
Rice [9]; applied 7 DAS, 3 GAI/HA
  PHYTOTOXICITY: 1.67
Rice [9]; applied 7 DAS, 6 GAI/HA
  PHYTOTOXICITY: 1.33
Rice [9]; applied 14 DAS, 3 GAI/HA
  PHYTOTOXICITY: 1.0
Rice [9]; applied 14 DAS, 6 GAI/HA
  PHYTOTOXICITY: 1.0
Rice [9]; applied 21 DAS, 3 GAI/HA
  PHYTOTOXICITY: 0
Rice [9]; applied 21 DAS, 6 GAI/HA
  PHYTOTOXICITY: 0
Rice [9]; applied 28 DAS, 3 GAI/HA
  PHYTOTOXICITY: 0
Rice [9]; applied 28 DAS, 6 GAI/HA
  PHYTOTOXICITY: 0
